Values joined by “and” are separate entries in the source; they are usually repeats but may differ in a detail not shown here. Equal entries are not always repeated. Where two headings read alike, the source gives them in different places.
Experiments:
A. fumigatus SglA = A. fumigatus SglA (Aspergillus fumigatus, UniProt Q4WXA7); assay: Ergosterol 3β-D-glucoside (ErgGlc) hydrolysis by SglA, ergosterol quantified by HPLC; type: biochemical
Description: We assessed the potential inhibition of SglA enzymatic activity toward ErgGlc by the seven derivatives at concentrations of 0.1, 1, 10, and 100 μM.
A 50-μL volume of wild-type Af SglA containing 10 ng of protein (0.11 pmol) and 50 μL of mixed micelles of lipid and Triton X-100 in 50 mM sodium acetate buffer (pH 5.5) with 150 mM NaCl, 5 mM βME, and 5 mM DTT were mixed and incubated at 37°C for 20 min (ErgGlc; Avanti Polar Lipids). After the incubation period, each reaction was quenched with a 2:1 chloroform-methanol solution, and the organic phase was collected and dried. Then, the lipid content was resuspended in […] methanol and analized by HPLC using Agilent 1260 Infinity II (Agilent Technologies). Total ErgGlc and ergosterol were detected at 282 nm on a C8 column with a flow rate of 0.5 mL/min in methanol-water (90:10) buffered with 1 mM ammonium formate and 0.2% formic acid.

Af wild-type strain [1] = assay: Lung fungal burden quantification by qPCR; type: in vivo, CBA/J mice; conditions: hit B 20, hit C 60, B7 5 mg/kg/day intraperitoneally
Description: Lung fungal burden was assessed by the determination of the amplification of fungal 18S DNA by qPCR. The lungs of euthanized mice were aseptically removed and immediately frozen in liquid nitrogen. Genomic DNA extraction was carried out as previously described by Malavazi and Goldman ([40]) with modifications. Previous to the genomic DNA extraction, the lungs were lyophilized for 2 to 3 days, ground using 2-mm glass beads, resuspended in 1 mL of lysis buffer, and vortexed thoroughly. One milliliter of phenol-chloroform–isoamyl alcohol (25:24:1), stabilized and saturated with 100 mM Tris-EDTA to pH 8.0 (Sigma-Aldrich), was added, and the mixture was vortexed for 10 min to extract nucleic acid. The mixture was centrifuged, and the aqueous phase was collected, and the genomic DNA was precipitated with 500 μL isopropanol. The DNA pellet was washed with 500 μL cold 70% ethanol and air dried, and the DNA pellet was resuspended in 100 μL of DNase-free water. The primers Fungal 18S 5′ UTR fw ([…]) and 3′ UTR rv ([…]) and the mouse glyceraldehyde-3-phosphate dehydrogenase (GAPDH) primers 5′ UTR fw ([…]) and 3′ UTR rv ([…]) were amplified using SYBR green PCR master mix (Thermo Fisher Scientific).

wild-type Af [2] = assay: Ergosterol 3-β-D-glucoside accumulation in live cells (LC-MS); type: cell-based, Aspergillus fumigatus; conditions: 48 h; for ErgGlc accumulation versus control (untreated wild-type Af): 100 and 500 μM
Description: Wild-type Af ΔKu80pyrG1a and the mutant Δsgla strain were cultivated in yeast extract-glucose medium (YAG) (2% [wt/vol] glucose, 0.5% [wt/vol] yeast extract, 1× trace elements, 1× amino acid solution, 2% [wt/vol] bacteriological agar) for 48 h at 37°C. High-nitrate salts, trace elements, and amino acid solutions were prepared as previously described ([37]). The medium was supplemented with 1.2 g/L of uracil and uridine (UU), generating YAG+UU medium when the strain ΔKu80pyrG1a was used. After that, the a conidial suspension in water was obtained, and a pellet with 1 × 10^7 conidia was treated in minimal medium broth pH 6.5 (MM or MM+UU) (1% [wt/vol] glucose, 1× high-nitrate salts, 1× trace elements) for 48 h at 37°C under agitation, with the hits selected, according to the toxicity criteria, at various concentrations. […] After that, the resultant hyphal pellet was used for lipid extraction. Then, the total lipid was extracted as described by Singh et al. ([39]). The dried samples were resuspended in 2:1 chloroform-methanol for liquid chromatography-mass spectrometry (LC-MS) analysis. A standard ErgGlc from Avanti Polar Lipids was used as a control for the calibration curve. Data were normalized to the total inorganic phosphate content in the sample.

wild-type Af [3] = assay: Filamentation assay (hyphal length); type: cell-based, Aspergillus fumigatus; conditions: 12 h
Description: To evaluate hyphal growth, conidial suspensions of the Af wild-type strain ΔKu80pyrG1a and the Δsgla and Δsgla+SGLA strains were obtained as described above. Then, the assay conditions were performed as previously described by Fernandes et al. ([16]). For that, 1 × 10^5 conidia of strain ΔKu80pyrG1a were inoculated onto a glass-bottom dish containing 2 mL of MM or MM+UU with and without the experimental compounds in various concentrations and grown at 37°C for 10 to 12 h. MM broth without the compounds were used for the mutant and the reconstituted strains. The living hyphae growing attached to the glass were analyzed by differential inference contrast (DIC) microscopy using a Zeiss Observer D.1 microscope, and the hyphal length was measured using ImageJ software.

[4] = system: human lung epithelial cancer cell line A549; conditions: 24 h
Description: The cells were maintained in Dulbecco’s modified Eagle medium (DMEM) containing 10% fetal bovine serum (FBS) and 1% penicillin-streptomycin. At passage 11, 10^5 cells were transferred into each well of 96-well plates and cultured for 18 to 24 h to allow the cells to adhere to the well surface. Next, the medium was removed, and fresh medium containing the selected compounds at concentration range of 1 to 512 μM was added to the wells. Controls with equivalent serial concentrations of DMSO were also evaluated and compared with a control without DMSO. The plate was incubated at 37°C with 5% CO2. After 24 h, the supernatant was removed and 50 μL of 5 mg/mL 3-(4,5-dimethylthiazol-2-yl)-2,5-diphenyltetrazoliumbromide (MTT) solution in PBS was added to each well. The plates were incubated for an additional 4 h, and the formazan crystals formed inside the cell were dissolved by adding 50 μL DMSO. Next, the absorbance was measured at 570 nm, and the calculated LD50 was divided by the IC50 of each hit in order to determine the SI of each compound.

Af wild-type strain [5] = assay: Mouse model of pulmonary aspergillosis, survival; type: in vivo, CBA/J mice
Description: Male and female CBA/J mice 5 to 6 weeks old were purchased from Envigo and allowed 1 week to acclimate upon arrival. One day prior to infection, the animals were immunosuppressed with 100 mg/kg of the corticosteroid triamcinolone acetonide (Alfa Aesar) subcutaneously as previously described ([16]). On the day of the infection, the animals were initially anesthetized with a ketamine-xylazine solution (95 mg of ketamine and 5 mg of xylazine per kg of body weight) intraperitoneally and then infected with 2.5 × 10^4 Af wild-type ΔKu80pyrG+ conidia in 20 μL of PBS intranasally. One hour after the procedure, intraperitoneal treatment with hit B (5 and 20 mg/kg/day) and hit C (20 and 60 mg/kg/day) was started and continued until 30 days postinfection. Mice that survived until day 30 were euthanized by CO2 inhalation and used for organ fungal burden determinations. A similar procedure was performed for derivative B7 at a dose of 5 mg/kg/day.

Af SglA = Af SglA (Aspergillus fumigatus, UniProt Q4WXA7); assay: HTS / resorufin 3β-D-glucopyranoside (ResGlp) enzymatic assay of SglA; type: biochemical; conditions: primary screen, ResGlp as the substrate, single compounds 0.25 to 4 μM
Description: (§1) Resorufin 3β-D-glucopyranoside (ResGlp; Sigma-Aldrich) enzyme kinetic assays were performed according to methods described by Pereira de Sa et al. ([17]). Reaction buffer contained 50 mM citric acid, 176 mM K2HPO4 (pH 6), 0.01% Tween 20, and 10 mM sodium taurocholate. The reaction was carried out in a black 96-well plate using 0.23 pmol of SglA with 100 μM ResGlp substrate. 10 μL/well of ResGlp was added to each well and the reaction was initiated by adding 20 μL enzyme (0.23 pmol). After incubation at 37°C for 30 min, the fluorescence was read at an excitation of 570 (±10) nm and an emission of 610 (±10) nm on a VersaMax microplate reader from Molecular Devices. A standard curve was prepared with serial dilutions of the free fluorophore, resorufin, in the same volume of assay buffer. All reactions were linear with respect to time and protein concentration, and the pH, temperature, and dimethyl sulfoxide (DMSO) optimal tolerance were verified.
(§2) A ChemBridge DIVERSet-CL library (ChemBridge, San Diego, CA) containing 50,000 compounds was screened to identify small molecules that inhibit Af SglA. The library was prepared in a 96-well plate format containing a cocktail of 10 compounds per well at 1 mM each in 100% DMSO. The cocktail plates were first diluted to 100 μM each (1:10 dilution in Dulbecco’s phosphate-buffered saline [DPBS]), resulting in 10% DMSO. In order to screen the compound cocktails at […] in 1% DMSO in a final reaction volume of 30 μL, an aliquot of 3 μL was added to 17 μL of buffer containing 0.23 pmol of enzyme and the reaction was started by adding 10 μL of 100 μM ResGlp. A negative control without enzyme and positive controls with and without DMSO were prepared. The plates were incubated at 37°C for 30 min. The Z′ factor was used for the assessment of the efficiency of the HTS assay for each plate. Values greater than 0.5 are considered indicators of excellent screening assay quality ([36]).

[6] = system: O=c1ccc2nc3ccc(O[C@@H]4O[C@H](CO)[C@@H](O)[C@H](O)[C@H]4O)cc3oc-2c1; assay: as above; type: biochemical, Aspergillus fumigatus; conditions: other: substrate kinetics, 0.23 pmol of SglA; pH 6.0; 37.0 °C
Description: as §1, §2

[7] = substrate in Triton X-100 mixed micelles, 0.11 pmol SglA, 20 min
[8] = ErgGlc as the substrate, read-out: IC50

Sequence of Af SglA (Q4WXA7 entry or part of it): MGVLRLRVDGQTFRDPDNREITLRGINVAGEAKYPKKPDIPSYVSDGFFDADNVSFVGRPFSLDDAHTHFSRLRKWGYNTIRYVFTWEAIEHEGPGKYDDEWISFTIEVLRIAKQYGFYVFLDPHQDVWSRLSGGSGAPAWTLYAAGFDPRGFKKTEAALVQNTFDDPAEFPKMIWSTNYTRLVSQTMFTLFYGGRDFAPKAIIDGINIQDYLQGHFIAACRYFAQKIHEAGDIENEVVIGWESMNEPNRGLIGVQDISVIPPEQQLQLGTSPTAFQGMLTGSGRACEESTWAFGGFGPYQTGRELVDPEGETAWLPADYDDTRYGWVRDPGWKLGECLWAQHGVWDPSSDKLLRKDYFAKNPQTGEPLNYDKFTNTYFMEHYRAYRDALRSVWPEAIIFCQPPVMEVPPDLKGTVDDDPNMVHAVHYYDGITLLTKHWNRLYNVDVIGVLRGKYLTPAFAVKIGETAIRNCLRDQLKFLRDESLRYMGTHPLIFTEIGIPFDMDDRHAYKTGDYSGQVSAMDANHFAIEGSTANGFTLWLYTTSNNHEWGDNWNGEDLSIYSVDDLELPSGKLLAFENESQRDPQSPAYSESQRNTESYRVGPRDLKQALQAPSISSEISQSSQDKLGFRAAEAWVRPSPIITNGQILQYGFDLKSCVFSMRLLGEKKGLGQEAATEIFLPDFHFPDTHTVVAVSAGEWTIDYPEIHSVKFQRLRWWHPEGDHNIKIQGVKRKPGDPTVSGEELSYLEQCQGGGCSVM
Sequence of A. fumigatus SglA (Q4WXA7 entry or part of it): as above

## CC(C)[C@@H](C)/C=C/[C@@H](C)[C@H]1CC[C@H]2C3=CC=C4C[C@@H](O[C@@H]5O[C@H](CO)[C@@H](O)[C@H](O)[C@H]5O)CC[C@]4(C)[C@H]3CC[C@]12C [ErgGlc, ergosterol 3β-D-glucoside, reference compound]
A. fumigatus SglA; [7]
  Km: 0.57 ± 0.09 mol%
  kcat: 0.73 ± 0.04 s⁻¹

## Cc1cc(CNc2cc(N)ncn2)c2[nH]c(C)c(C)c2c1 [Hit B1, N-[(2,3,5-trimethyl-1H-indol-7-yl)methyl]pyrimidine-4,6-diamine]
A. fumigatus SglA; [8]
  IC50: > 100 µM

## Cc1[nH]c2ccc(CNc3cc(NCCO)ncn3)cc2c1C [Hit B2, 2-[(6-{[(2,3-dimethyl-1H-indol-5-yl)methyl]amino}pyrimidin-4-yl)amino]ethanol]
A. fumigatus SglA; [8]
  IC50: 15 µM

## CCc1[nH]c2ccc(CNc3ccnc(N)n3)cc2c1C [Hit B3, N~4~-[(2-ethyl-3-methyl-1H-indol-5-yl)methyl]pyrimidine-2,4-diamine]
A. fumigatus SglA; [8]
  IC50: > 100 µM

## Cc1cc(CNc2ccnc(N)n2)c2[nH]c(C)c(C)c2c1 [Hit B4, N~4~-[(2,3,5-trimethyl-1H-indol-7-yl)methyl]pyrimidine-2,4-diamine]
A. fumigatus SglA; [8]
  IC50: > 100 µM

## Cc1[nH]c2ccc(CNc3cc(N4CCOCC4)ncn3)cc2c1C [Hit B5, N-[(2,3-dimethyl-1H-indol-5-yl)methyl]-6-morpholin-4-ylpyrimidin-4-amine]
A. fumigatus SglA; [8]
  IC50: 15 µM

## CCc1[nH]c2ccc(CNc3cc(C)nc(NC)n3)cc2c1C [Hit B6, N~4~-[(2-ethyl-3-methyl-1H-indol-5-yl)methyl]-N~2~,6-dimethylpyrimidine-2,4-diamine]
A. fumigatus SglA; [8]
  IC50: 9 µM

## CCc1[nH]c2ccc(CNc3nc(C)cc(NC)n3)cc2c1C [Hit B7, N~2~-[(2-ethyl-3-methyl-1H-indol-5-yl)methyl]-N~4~,6-dimethylpyrimidine-2,4-diamine]
Af wild-type strain [1]
  lung fungal burden of mice that survived 30 days: full recovery
A. fumigatus SglA
  IC50: 3 µM
wild-type Af [2]; 100 μM
  ErgGlc accumulation compared with hit B: significantly higher accumulation of ErgGlc than treatment with hit B
wild-type Af [3]; 50 and 100 μM
  hyphal length compared with hit B: shorter hyphae than hit B
[4]
  LD50: 200 µM

## Cc1[nH]c2ccc(CNc3cc(N)ncn3)cc2c1C [Hit B]
Af wild-type strain [5]; 20 mg/kg/day intraperitoneally, 30 days, immunosuppressed mice
  survival of animals: 50%
Af wild-type strain [1]
  lung fungal burden of mice that survived 30 days: no fungal burden in the lung tissue
Af SglA
  IC50: 1000 nM and 1000 to 2000 nM
A. fumigatus SglA
  IC50: 10 µM
A. fumigatus SglA; ErgGlc as the substrate
  IC50: low micromolar range
wild-type Af [2]
  ErgGlc accumulation versus control (untreated wild-type Af): differed significantly from the control
wild-type Af [3]; 50 and 100 μM, 37°C
  germination and hyphal growth of Af wild-type conidia: significantly delays the germination and hyphal growth

## CC(Cc1ccc2c(c1)OCO2)c1c(-c2ccccc2)ncn1CCO (centres unmarked) [Hit C]
Af wild-type strain [5]; 60 mg/kg/day intraperitoneally
  survival versus infected untreated mice: significantly prolonged mouse survival
Af wild-type strain [5]; 60 mg/kg/day intraperitoneally, until day 30 postinfection
  survival of animals: 20%
Af wild-type strain [1]
  lung fungal burden of mice that survived 30 days: full lung clearance
Af SglA
  IC50: 2000 nM and 1000 to 2000 nM
A. fumigatus SglA; ErgGlc as the substrate
  IC50: low micromolar range
wild-type Af [2]
  ErgGlc accumulation versus control (untreated wild-type Af): differed significantly from the control
wild-type Af [3]; all concentrations tested (1 to 100 μM)
  hyphal growth: significantly reduced hyphal growth at all concentrations tested
[4]
  LD50: > 200 µM

## Af SglA (Aspergillus fumigatus Af293)
[6]
  Km: 86.2 µM

— publication PMC10128061, “Targeting Sterylglucosidase A to Treat Aspergillus fumigatus Infections” (mBio, 2023)
